Laboratory results from BindingDB's records for doi:10.1016/j.bmcl.2005.11.067 (Merck Sharp and Dohme Research Laboratories, 2006).

Target: T1, Alpha-1A/Alpha-1B/Alpha-1D adrenergic receptor (Rattus norvegicus, UniProt P15823+P23944+P43140)
T1 sequence (P15823 whole entry): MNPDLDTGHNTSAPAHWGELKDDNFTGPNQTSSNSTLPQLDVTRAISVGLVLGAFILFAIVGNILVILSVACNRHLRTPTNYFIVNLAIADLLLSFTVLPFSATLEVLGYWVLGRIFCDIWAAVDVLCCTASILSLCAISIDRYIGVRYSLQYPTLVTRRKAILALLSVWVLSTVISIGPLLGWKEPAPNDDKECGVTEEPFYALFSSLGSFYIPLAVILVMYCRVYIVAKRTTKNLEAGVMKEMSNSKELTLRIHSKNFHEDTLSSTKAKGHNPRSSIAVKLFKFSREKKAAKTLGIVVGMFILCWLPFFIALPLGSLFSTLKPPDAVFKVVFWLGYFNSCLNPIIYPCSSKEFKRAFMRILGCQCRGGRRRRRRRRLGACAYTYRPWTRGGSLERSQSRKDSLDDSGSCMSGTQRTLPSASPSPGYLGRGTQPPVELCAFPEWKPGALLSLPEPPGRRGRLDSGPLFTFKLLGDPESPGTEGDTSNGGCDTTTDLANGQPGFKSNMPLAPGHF
T1 sequence (P43140 whole entry): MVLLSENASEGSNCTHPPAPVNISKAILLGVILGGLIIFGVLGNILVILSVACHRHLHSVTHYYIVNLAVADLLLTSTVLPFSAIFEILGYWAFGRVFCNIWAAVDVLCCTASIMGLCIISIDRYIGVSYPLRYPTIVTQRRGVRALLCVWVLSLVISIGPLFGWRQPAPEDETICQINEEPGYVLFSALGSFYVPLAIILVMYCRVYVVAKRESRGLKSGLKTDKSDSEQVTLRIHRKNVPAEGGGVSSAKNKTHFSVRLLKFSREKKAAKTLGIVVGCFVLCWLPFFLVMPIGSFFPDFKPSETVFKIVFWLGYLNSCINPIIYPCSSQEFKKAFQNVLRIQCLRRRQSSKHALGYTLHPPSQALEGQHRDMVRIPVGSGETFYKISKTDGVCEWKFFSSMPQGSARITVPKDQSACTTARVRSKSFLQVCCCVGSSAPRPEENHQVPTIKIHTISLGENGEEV
T1 sequence (P23944 whole entry): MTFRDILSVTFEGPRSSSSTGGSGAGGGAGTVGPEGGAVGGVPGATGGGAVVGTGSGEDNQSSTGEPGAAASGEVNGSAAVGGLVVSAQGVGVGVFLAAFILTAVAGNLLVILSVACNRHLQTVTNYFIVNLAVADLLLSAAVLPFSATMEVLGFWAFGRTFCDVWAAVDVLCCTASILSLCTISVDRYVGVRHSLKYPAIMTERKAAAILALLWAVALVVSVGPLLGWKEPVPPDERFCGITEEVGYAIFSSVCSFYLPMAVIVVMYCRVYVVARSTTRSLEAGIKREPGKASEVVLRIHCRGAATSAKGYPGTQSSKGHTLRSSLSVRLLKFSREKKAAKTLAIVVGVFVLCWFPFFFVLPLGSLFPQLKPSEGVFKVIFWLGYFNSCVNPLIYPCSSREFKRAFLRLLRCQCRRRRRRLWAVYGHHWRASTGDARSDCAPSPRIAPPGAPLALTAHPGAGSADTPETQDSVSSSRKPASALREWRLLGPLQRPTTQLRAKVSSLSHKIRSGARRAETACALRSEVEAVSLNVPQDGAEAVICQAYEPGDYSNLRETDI
Assay: Displacement of [3H]prazosin from alpha-1 adrenergic receptor in rat cortex

CC(C)(CCCN1CCCC(c2cnco2)C1)S(=O)(=O)c1ccccc1 (centres undefined)
Ki: > 4 µM

CCOC(=O)[C@@H]1CCCN(CCCC(C)(C)S(=O)(=O)c2ccccc2)C1
Ki: > 4 µM

CC(C)(CCCN1CCCC(c2ccccc2)C1)S(=O)(=O)c1ccccc1 (centres undefined)
Ki: 0.54 µM

CC(C)(CCCN1CCCC(C(F)(F)F)C1)S(=O)(=O)c1ccccc1 (centres undefined)
Ki: > 4 µM
